Test results from patent US20230085307A1, “PYRIDAZINONE COMPOUND AND HERBICIDE” (NISSAN CHEMICAL CORPORATION, priority 2019, published 2023).

Experiments:
[1] = tested on: Italian ryegrass; assay: Test Example 5: herbicidal effect by foliage application, plastic box (Table 20, symbol K); type: in vivo, Italian ryegrass (Lolium multiflorum); details: foliage application; for K: Italian ryegrass, herbicidal effect grade: three weeks after application; for K (Italian ryegrass) herbicidal effect grade: evaluated 3 weeks after application
Summary of the method: (§1)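 Post-emergence foliar test in sterilized diluvial soil. Compound applied as water-diluted emulsion at a predetermined rate to 14-day-old plants; evaluation at three weeks.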

[2] = tested on: barnyard grass; assay: Test Example 3: herbicidal effect by foliage application, Wagner pot (Table 18, symbol H); type: in vivo, barnyard grass (Echinochloa crus-galli)
Summary of the method: (§2)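 Plants were sown in alluvial soil held under 0.1–0.5 cm standing water and grown 14 days in a greenhouse at 25–30 °C. An emulsifiable formulation, water-diluted to the set dose, was then sprayed onto the foliage, and effects were scored three weeks later using previously defined criteria.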

[3] = tested on: false cleavers; assay: Test Example 4: herbicidal effect by soil treatment (Table 19, symbol Q); type: in vivo, false cleavers (Galium spurium)
Summary of the method: (§3)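 Emulsion of test compound, water-diluted to predetermined amount, sprayed on soil after sowing (seed depth ~1.5 cm, sterilized diluvial soil). Greenhouse, 25–30° C. Effect graded at three weeks post-spray.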

[4] = tested on: barnyard grass; assay: Test Example 4: herbicidal effect by soil treatment (Table 19, symbol H); type: in vivo, barnyard grass (Echinochloa crus-galli)
Summary of the method: as §3

[5] = tested on: persian speedwell; assay: Test Example 4: herbicidal effect by soil treatment (Table 19, symbol R); type: in vivo, Persian speedwell (Veronica persica)
Summary of the method: as §3

[6] = tested on: windgrass; assay: Test Example 5: herbicidal effect by foliage application, plastic box (Table 20, symbol L); type: in vivo, windgrass (Apera spica-venti); details: foliage application; for L: windgrass, herbicidal effect grade: three weeks after application; for L (windgrass) herbicidal effect grade: evaluated 3 weeks after application
Summary of the method: as §1

[7] = tested on: green foxtail; assay: Test Example 5: herbicidal effect by foliage application, plastic box (Table 20, symbol G); type: in vivo, green foxtail (Setaria viridis); details: foliage application; for G: green foxtail, herbicidal effect grade: three weeks after application; for G (green foxtail) herbicidal effect grade: evaluated 3 weeks after application
Summary of the method: as §1

[8] = tested on: lambsquarters; assay: Test Example 4: herbicidal effect by soil treatment (Table 19, symbol O); type: in vivo, lambsquarters (Chenopodium album)
Summary of the method: as §3

[9] = tested on: oval-leafed pondweed; assay: Test Example 1: herbicidal activity, application before weed generation under submerged conditions (Table 16, symbol C); type: in vivo, oval-leafed pondweed (Monochoria vaginalis)
Summary of the method: (§4)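 Emulsion formulation, water-diluted to set dose, was put onto the flooded surface (4 cm depth, alluvial soil) the same day weeds were sown and 2.5-leaf rice transplanted. After 3 weeks at 25-30 °C under glass, each species was rated 0 (≤5% kill) to 5 (≥90% kill).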

[10] = tested on: windgrass; assay: Test Example 4: herbicidal effect by soil treatment (Table 19, symbol L); type: in vivo, windgrass (Apera spica-venti)
Summary of the method: as §3

[11] = tested on: late watergrass; assay: Test Example 1: herbicidal activity, application before weed generation under submerged conditions (Table 16, symbol A); type: in vivo, late watergrass (Echinochloa oryzicola)
Summary of the method: as §4

[12] = tested on: lambsquarters; assay: Test Example 5: herbicidal effect by foliage application, plastic box (Table 20, symbol O); type: in vivo, lambsquarters (Chenopodium album); details: foliage application; for O: lambsquarters, herbicidal effect grade: three weeks after application; for O (lambsquarters) herbicidal effect grade: evaluated 3 weeks after application
Summary of the method: as §1

[13] = tested on: southern crabgrass; assay: Test Example 5: herbicidal effect by foliage application, plastic box (Table 20, symbol F); type: in vivo, southern crabgrass (Digitaria ciliaris); details: foliage application; for F: southern crabgrass, herbicidal effect grade: three weeks after application; for F (southern crabgrass) herbicidal effect grade: evaluated 3 weeks after application
Summary of the method: as §1

[14] = tested on: false cleavers; assay: Test Example 5: herbicidal effect by foliage application, plastic box (Table 20, symbol Q); type: in vivo, false cleavers (Galium spurium); details: foliage application, 320 g/ha, three weeks after application
Summary of the method: as §1

[15] = tested on: Italian ryegrass; assay: Test Example 4: herbicidal effect by soil treatment (Table 19, symbol K); type: in vivo, Italian ryegrass (Lolium multiflorum)
Summary of the method: as §3

[16] = tested on: velvetleaf; assay: Test Example 5: herbicidal effect by foliage application, plastic box (Table 20, symbol M); type: in vivo, velvetleaf (Abutilon theophrasti); details: foliage application; for M: velvetleaf, herbicidal effect grade: three weeks after application; for M (velvetleaf) herbicidal effect grade: evaluated 3 weeks after application
Summary of the method: as §1

[17] = tested on: Chinese sprangletop; assay: Test Example 3: herbicidal effect by foliage application, Wagner pot (Table 18, symbol D); type: in vivo, chinese sprangletop (Leptochloa chinensis)
Summary of the method: as §2

[18] = tested on: persian speedwell; assay: Test Example 5: herbicidal effect by foliage application, plastic box (Table 20, symbol R); type: in vivo, Persian speedwell (Veronica persica); details: foliage application; for R: persian speedwell, herbicidal effect grade: three weeks after application; for R (persian speedwell) herbicidal effect grade: evaluated 3 weeks after application
Summary of the method: as §1

[19] = amount of applied herbicide 320 g/ha
[20] = amount of applied herbicide 402 g/ha

SMILES | K: Italian ryegrass, herbicidal effect grade ([1]; 320 g/ha) | herbicidal effect on H: barnyard grass [2, 19] | herbicidal effect, Q: false cleavers [3, 19] | herbicidal effect, H: barnyard grass [4, 19] | herbicidal effect, R: persian speedwell [5, 19] | L: windgrass, herbicidal effect grade ([6]; 320 g/ha) | G: green foxtail, herbicidal effect grade ([7]; 320 g/ha) | herbicidal effect, O: lambsquarters [8, 19] | Herbicidal effect, C: oval-leafed pondweed [9, 19] | herbicidal effect, L: windgrass [10, 19] | Herbicidal effect, A: late watergrass [11, 19] | O: lambsquarters, herbicidal effect grade ([12]; 320 g/ha) | F: southern crabgrass, herbicidal effect grade ([13]; 320 g/ha) | Q: false cleavers, herbicidal effect grade [14] | herbicidal effect, K: Italian ryegrass [15, 19] | M: velvetleaf, herbicidal effect grade ([16]; 320 g/ha) | herbicidal effect on D: Chinese sprangletop [17, 19] | R: persian speedwell, herbicidal effect grade ([18]; 320 g/ha) | also measured
CCCC(=O)Oc1c(C)nn(C)c(=O)c1-c1c(-c2ccccc2OC)sc2cc(F)ccc12 [3-004] | 5 (Herbicidal rate of 90% or more (almost completely withered)) | 5 (Herbicidal rate of 90% or more (almost completely withered)) | 5 (Herbicidal rate of 90% or more (almost completely withered)) | 4 (Herbicidal rate of 70% or more and less than 90%) | 4 (Herbicidal rate of 70% or more and less than 90%) | 5 (Herbicidal rate of 90% or more (almost completely withered)) | 4 (Herbicidal rate of 70% or more and less than 90%) | 5 (Herbicidal rate of 90% or more (almost completely withered)) | 3 (Herbicidal rate of 40% or more and less than 70%) | 5 (Herbicidal rate of 90% or more (almost completely withered)) | 5 (Herbicidal rate of 90% or more (almost completely withered)) | 5 (Herbicidal rate of 90% or more (almost completely withered)) | 3 (Herbicidal rate of 40% or more and less than 70%) | 5 (Herbicidal rate of 90% or more (almost completely withered)) | 5 (Herbicidal rate of 90% or more (almost completely withered)) | 5 (Herbicidal rate of 90% or more (almost completely withered)) | 4 (Herbicidal rate of 70% or more and less than 90%) | 5 (Herbicidal rate of 90% or more (almost completely withered)) | 
COc1ccc(-c2sc3cc(F)ccc3c2-c2c(O)c(C)nn(C)c2=O)cc1 [3-005] | 3 (Herbicidal rate of 40% or more and less than 70%) | 5 (Herbicidal rate of 90% or more (almost completely withered)) | 0 (Herbicidal rate of 5% or less (almost no effect)) | 3 (Herbicidal rate of 40% or more and less than 70%) | 4 (Herbicidal rate of 70% or more and less than 90%) | 3 (Herbicidal rate of 40% or more and less than 70%) | 4 (Herbicidal rate of 70% or more and less than 90%) | 4 (Herbicidal rate of 70% or more and less than 90%) | 4 (Herbicidal rate of 70% or more and less than 90%) | 0 (Herbicidal rate of 5% or less (almost no effect)) | 4 (Herbicidal rate of 70% or more and less than 90%) | 5 (Herbicidal rate of 90% or more (almost completely withered)) | 3 (Herbicidal rate of 40% or more and less than 70%) | 4 (Herbicidal rate of 70% or more and less than 90%) | 5 (Herbicidal rate of 90% or more (almost completely withered)) | 5 (Herbicidal rate of 90% or more (almost completely withered)) | 3 (Herbicidal rate of 40% or more and less than 70%) | 5 (Herbicidal rate of 90% or more (almost completely withered)) | 
CCCC(=O)Oc1c(C)nn(C)c(=O)c1-c1c(-c2ccc(SC(C)C)cc2)oc2ccc(C)cc12 [9-060] |  |  |  |  |  |  |  |  |  |  |  |  |  |  |  |  |  |  | K (Italian ryegrass) herbicidal effect grade ([1]; 402 g/ha): 5 (Herbicidal rate of 90% or more (almost completely withered)); Herbicidal effect on H (barnyard grass), foliage application [2, 20]: 4 (Herbicidal rate of 70% or more and less than 90%); Q: false cleavers, herbicidal effect grade [3, 20]: 0 (Herbicidal rate of 5% or less (almost no effect)); H: barnyard grass, herbicidal effect grade [4, 20]: 0 (Herbicidal rate of 5% or less (almost no effect)); R: persian speedwell, herbicidal effect grade [5, 20]: 5 (Herbicidal rate of 90% or more (almost completely withered)); L (windgrass) herbicidal effect grade ([6]; 402 g/ha): 0 (Herbicidal rate of 5% or less (almost no effect)); G (green foxtail) herbicidal effect grade ([7]; 402 g/ha): 5 (Herbicidal rate of 90% or more (almost completely withered)); O: lambsquarters, herbicidal effect grade [8, 20]: 4 (Herbicidal rate of 70% or more and less than 90%); Herbicidal effect, C: oval-leafed pondweed [9, 20]: 5 (Herbicidal rate of 90% or more (almost completely withered)); L: windgrass, herbicidal effect grade [10, 20]: 0 (Herbicidal rate of 5% or less (almost no effect)); Herbicidal effect, A: late watergrass [11, 20]: 5 (Herbicidal rate of 90% or more (almost completely withered)); O (lambsquarters) herbicidal effect grade ([12]; 402 g/ha): 5 (Herbicidal rate of 90% or more (almost completely withered)); F (southern crabgrass) herbicidal effect grade ([13]; 402 g/ha): 0 (Herbicidal rate of 5% or less (almost no effect)); K: Italian ryegrass, herbicidal effect grade [15, 20]: 4 (Herbicidal rate of 70% or more and less than 90%); M (velvetleaf) herbicidal effect grade ([16]; 402 g/ha): 5 (Herbicidal rate of 90% or more (almost completely withered)); Herbicidal effect on D (Chinese sprangletop), foliage application [17, 20]: 2 (Herbicidal rate of 20% or more and less than 40%); R (persian speedwell) herbicidal effect grade ([18]; 402 g/ha): 5 (Herbicidal rate of 90% or more (almost completely withered))
CCCC(=O)Oc1c(C)nn(C)c(=O)c1-c1c(-c2ccc(COC)cc2)oc2ccc(C)cc12 [9-062] |  |  |  |  |  |  |  |  | 5 (Herbicidal rate of 90% or more (almost completely withered)) |  | 5 (Herbicidal rate of 90% or more (almost completely withered)) |  |  |  |  |  |  |  | K (Italian ryegrass) herbicidal effect grade ([1]; 320 g/ha): 5 (Herbicidal rate of 90% or more (almost completely withered)); Herbicidal effect on H (barnyard grass), foliage application [2, 19]: 5 (Herbicidal rate of 90% or more (almost completely withered)); Q: false cleavers, herbicidal effect grade [3, 19]: 0 (Herbicidal rate of 5% or less (almost no effect)); H: barnyard grass, herbicidal effect grade [4, 19]: 4 (Herbicidal rate of 70% or more and less than 90%); R: persian speedwell, herbicidal effect grade [5, 19]: 5 (Herbicidal rate of 90% or more (almost completely withered)); L (windgrass) herbicidal effect grade ([6]; 320 g/ha): 0 (Herbicidal rate of 5% or less (almost no effect)); G (green foxtail) herbicidal effect grade ([7]; 320 g/ha): 5 (Herbicidal rate of 90% or more (almost completely withered)); O: lambsquarters, herbicidal effect grade [8, 19]: 4 (Herbicidal rate of 70% or more and less than 90%); L: windgrass, herbicidal effect grade [10, 19]: 0 (Herbicidal rate of 5% or less (almost no effect)); O (lambsquarters) herbicidal effect grade ([12]; 320 g/ha): 5 (Herbicidal rate of 90% or more (almost completely withered)); F (southern crabgrass) herbicidal effect grade ([13]; 320 g/ha): 5 (Herbicidal rate of 90% or more (almost completely withered)); K: Italian ryegrass, herbicidal effect grade [15, 19]: 5 (Herbicidal rate of 90% or more (almost completely withered)); M (velvetleaf) herbicidal effect grade ([16]; 320 g/ha): 5 (Herbicidal rate of 90% or more (almost completely withered)); Herbicidal effect on D (Chinese sprangletop), foliage application [17, 19]: 3 (Herbicidal rate of 40% or more and less than 70%); R (persian speedwell) herbicidal effect grade ([18]; 320 g/ha): 5 (Herbicidal rate of 90% or more (almost completely withered))
